Here are results for 8 compounds from PubChem BioAssay (NCI).

Among the test systems are SK-MEL-28 melanoma; UACC-257 melanoma; OVCAR-3 ovarian; OVCAR-4 ovarian; SF-295 CNS; HCT-15 colon; NCI/ADR-RES ovarian; HCC-2998 colon; U251 CNS; NCI-H226 lung.
Common to all, as to test: NCI tumour cell line growth inhibition, 48 h

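Where inhibition never reached the appropriate level, the endpoint shown equals the highest concentration tested. Otherwise, values were interpolated linearly from a five-concentration, 48-hour dose response in 96-well plates. GI50: concentration for 50% inhibition of growth. At the TGI there is no net growth.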

As for `CC(C)=CCC/C(C)=C/CC/C(C)=C/CSC[C@H](NC(=O)CCCCCN1CCN(C)CC1)C(=O)NC1CCCCCC1`, the GI50 in the assay on SK-MEL-28 melanoma is 1.7 µM; with UACC-257 melanoma, 1.85 µM; in the assay on OVCAR-3 ovarian, 2.06 µM; with OVCAR-4 ovarian it was 3.21 µM; with SF-295 CNS, 1.75 µM; in the assay on HCT-15 colon, 1.94 µM. Moreover, the GI50 was 3.89 µM in the assay with NCI/ADR-RES ovarian, 1.84 µM in the assay on HCC-2998 colon, 1.73 µM with U251 CNS and 11.6 µM in the assay on NCI-H226 lung. The TGI with SK-MEL-28 melanoma was 3.32 µM; in the assay with UACC-257 melanoma, 3.63 µM; with OVCAR-3 ovarian, 4.1 µM; in the assay on OVCAR-4 ovarian, 13.1 µM; with SF-295 CNS, 3.38 µM; with HCT-15 colon it was 3.93 µM. Further, the TGI was found to be 14.6 µM in the assay with NCI/ADR-RES ovarian, 3.61 µM in the assay with HCC-2998 colon, 3.19 µM in the assay with U251 CNS and 38.4 µM with NCI-H226 lung.

Take `CCC(=C(c1ccc(OCCN2CCCCC2)cc1)c1ccc(OCCN2CCCCC2)cc1)c1ccc(Cl)cc1`: the GI50 in the assay on SK-MEL-28 melanoma was 2.8 µM; in the assay with UACC-257 melanoma, 3.47 µM; in the assay with OVCAR-3 ovarian, 11.2 µM; in the assay on OVCAR-4 ovarian, above 16.7 µM; in the assay with SF-295 CNS, 6.53 µM; in the assay with HCT-15 colon, 1.05 µM. Also, the GI50 in the assay with NCI/ADR-RES ovarian was above 16.7 µM; in the assay on HCC-2998 colon it was 2.8 µM; in the assay with U251 CNS, 3.42 µM; in the assay with NCI-H226 lung it was above 16.7 µM. Further, the TGI with SK-MEL-28 melanoma was 5.26 µM; with UACC-257 melanoma it was 8.08 µM; with OVCAR-3 ovarian it was above 16.7 µM; in the assay with OVCAR-4 ovarian, above 16.7 µM; in the assay with SF-295 CNS it was above 16.7 µM; with HCT-15 colon it was above 16.7 µM. For the same compound, the TGI with NCI/ADR-RES ovarian, with HCC-2998 colon, in the assay with U251 CNS and in the assay on NCI-H226 lung was above 16.7 µM in each case.

With `CC(C)=CCc1cc2c(cc1O)C1=C(C(=O)C3=C(NCCS3(=O)=O)C1=O)C(C=C(C)C)O2` (stereo not given), the GI50 with SK-MEL-28 melanoma was 3.81 µM; in the assay on UACC-257 melanoma, 3.48 µM; with OVCAR-3 ovarian it was 2.13 µM; in the assay on OVCAR-4 ovarian, 3.31 µM; in the assay on SF-295 CNS, above 16.7 µM; with HCT-15 colon, 6.21 µM. Further, the GI50 was above 16.7 µM in the assay on NCI/ADR-RES ovarian, 9.25 µM with HCC-2998 colon, 4.19 µM in the assay with U251 CNS and 14.4 µM in the assay on NCI-H226 lung. In addition, the TGI in the assay with SK-MEL-28 melanoma was 9.84 µM; with UACC-257 melanoma it was 9.66 µM; in the assay with OVCAR-3 ovarian, 10.1 µM; with OVCAR-4 ovarian it was above 16.7 µM; in the assay on SF-295 CNS it was above 16.7 µM; in the assay with HCT-15 colon it was above 16.7 µM. Moreover, the TGI was above 16.7 µM in the assay with NCI/ADR-RES ovarian, above 16.7 µM in the assay on HCC-2998 colon, 13.9 µM in the assay with U251 CNS and above 16.7 µM with NCI-H226 lung.

As for `C[N+]1([O-])C2CCC1CC(OC(=O)C(CO)c1ccccc1)C2` (stereo not given), the TGI in the assay on SK-MEL-28 melanoma, in the assay on UACC-257 melanoma, in the assay on OVCAR-3 ovarian, in the assay on OVCAR-4 ovarian, in the assay with SF-295 CNS and with HCT-15 colon was above 100 µM each time. For the same compound, the TGI with NCI/ADR-RES ovarian, in the assay with HCC-2998 colon, in the assay on U251 CNS and with NCI-H226 lung was above 100 µM in each case.

Consider `Cn1cc(-c2ccc3nc(-c4ccc(CC(=O)Nc5cc(C(C)(C)C)no5)cc4)cnc3c2)cn1`, for which the GI50 in the assay with SK-MEL-28 melanoma was 0.104 µM; in the assay with UACC-257 melanoma, 0.0784 µM; in the assay on OVCAR-3 ovarian, 0.0592 µM; with OVCAR-4 ovarian, 0.0193 µM; in the assay with SF-295 CNS, 0.0563 µM; in the assay on HCT-15 colon, 0.0197 µM. Also, the GI50 in the assay with NCI/ADR-RES ovarian is 0.0612 µM; in the assay on HCC-2998 colon, above 1.69 µM; with U251 CNS it was 0.0298 µM; with NCI-H226 lung, 0.0444 µM. The TGI in the assay with SK-MEL-28 melanoma, in the assay on UACC-257 melanoma, in the assay with OVCAR-3 ovarian, in the assay on OVCAR-4 ovarian, in the assay on SF-295 CNS and in the assay with HCT-15 colon was above 3 µM in each case. The TGI in the assay with NCI/ADR-RES ovarian, with HCC-2998 colon, in the assay on U251 CNS and in the assay with NCI-H226 lung was above 3 µM throughout.

As to `CCN(Cc1ccc(OC)cc1)c1ccc(CO)c(Cl)c1`, the GI50 in the assay on SK-MEL-28 melanoma is 16.3 µM; with UACC-257 melanoma, 0.124 µM; in the assay with OVCAR-3 ovarian, 0.636 µM; with OVCAR-4 ovarian, 0.369 µM; with SF-295 CNS it was 1.31 µM; in the assay with HCT-15 colon, 12.2 µM. Also, the GI50 in the assay with NCI/ADR-RES ovarian is 15 µM; in the assay with HCC-2998 colon, 12.9 µM; in the assay on U251 CNS it was 0.966 µM; in the assay with NCI-H226 lung, 0.0519 µM. Further, the TGI in the assay with SK-MEL-28 melanoma was 36.6 µM; with UACC-257 melanoma, 0.312 µM; with OVCAR-3 ovarian, 6.19 µM; in the assay on OVCAR-4 ovarian it was 15.9 µM; in the assay on SF-295 CNS, 31.5 µM; in the assay on HCT-15 colon, above 100 µM. Further, the TGI was determined as 49.6 µM in the assay on NCI/ADR-RES ovarian, 40.4 µM in the assay with HCC-2998 colon, 26.6 µM in the assay on U251 CNS and 0.182 µM in the assay on NCI-H226 lung.

Regarding `O=[N+]([O-])c1ccc(C2=NCCO2)cc1`, the GI50 with SK-MEL-28 melanoma, with UACC-257 melanoma, in the assay with OVCAR-3 ovarian, in the assay on OVCAR-4 ovarian, in the assay on SF-295 CNS and in the assay with HCT-15 colon was above 100 µM throughout. For the same compound, the GI50 in the assay with NCI/ADR-RES ovarian, with HCC-2998 colon, in the assay on U251 CNS and with NCI-H226 lung was above 100 µM in each case. The TGI in the assay on SK-MEL-28 melanoma, in the assay with UACC-257 melanoma, in the assay on OVCAR-3 ovarian, in the assay with OVCAR-4 ovarian, in the assay on SF-295 CNS and in the assay on HCT-15 colon was above 100 µM each time. In addition, the TGI in the assay on NCI/ADR-RES ovarian, with HCC-2998 colon, in the assay with U251 CNS and with NCI-H226 lung was above 100 µM throughout.

Turning to `CS(=O)(=O)OCCN(CCOS(C)(=O)=O)c1ccc(C=Nc2ccc(-c3csc(COc4ccccc4)n3)cc2)cc1`, the TGI with SK-MEL-28 melanoma worked out at 25.5 µM; in the assay on UACC-257 melanoma, 28.3 µM; with OVCAR-3 ovarian, 15.3 µM; with OVCAR-4 ovarian it was 49.1 µM; in the assay on SF-295 CNS it was 17.8 µM; with HCT-15 colon it was 22.4 µM. In addition, the TGI in the assay on NCI/ADR-RES ovarian came to 49.7 µM; with HCC-2998 colon it was 7.59 µM; in the assay with U251 CNS it was 25 µM; in the assay on NCI-H226 lung, 18.2 µM.
